Reference: patent publication US20110182943A1, “METHODS OF IMMUNE OR HEMATOLOGICAL ENHANCEMENT, INHIBITING TUMOUR FORMATION OR GROWTH, AND TREATING OR PREVENTING CANCER, CANCER SYMPTOMS, OR THE SYMPTOMS OF CANCER TREATMENTS” (FONTERRA CO-OPERATIVE GROUP LIMITED, priority 2007, published 2011)

How the values were obtained:
[1] = tested on: 4T1 tumour cells; experiment: 4T1 breast cancer primary tumour growth; type: in vivo, Balb/c mice
Method: Tumours were established by s.c. injection of 2×10^5 EL-4 or 2×10^4 4T1 cells into the left flank of mice, and tumour growth determined by measuring two perpendicular diameters. Animals were euthanased when tumours reached more than 1.0 cm in diameter, in accord with Animal Ethics Approval (University of Auckland). All experiments included 5 or 6 mice per treatment group, unless otherwise indicated. Paclitaxel (30 mg dissolved in 5 ml of Cremophor® EL and dehydrated alcohol) was diluted in 0.9% NaCl and administered i.p. at 30 mg/Kg.
Groups of 6 Balb/c mice were fed the base AIN-93 diet, or the same diet substituted with 5% milk fat, representing ˜71% of the fat component of the diet. Mice were challenged subcutaneously with 2×10^4 4T1 tumour cells two weeks after being placed on the diets. The mice were monitored for tumour growth, and tumour size was measured every three days.

[2] = day 4; 300 mg/Kg i.p.; irrespective of the diet fed
Method: Cyclophosphamide, diluted in PBS, was administered i.p. at 300 mg/Kg.
(§1) Groups of six C57BL/6 mice were fed an AIN93G diet or the same diet substituted with either 5%, 25% or 70% milk fat, and after 4 weeks of feeding were injected intraperitoneally with cyclophosphamide (300 mg/Kg of body weight) at day 0. The mice were killed 4, 8, and 12 days later, and tissues analyzed for the side-effects of drug treatment, as described below.

[3] = single injection 300 mg/Kg i.p.; control diet
Method: as §1

[4] = tested on: 4T1 breast cancer tumours; experiment: 4T1 liver metastases; type: in vivo, Balb/c mice; conditions: day 35
From the text: Suppression of liver metastases: Similarly, the livers of the above mice were inspected for tumours and micrometastases. The livers were removed, section, and stained with hematoxylin/eosin, and the numbers of metastatic nodules inside the livers were counted.

[5] = tested on: 4T1 breast cancer tumours; experiment: 4T1 lung surface metastases; type: in vivo, Balb/c mice; conditions: day 35
From the text: Suppression of lung metastases: The 4T1 breast cancer cell line is highly metastatic and disseminates to the lung and liver. The lungs of the mice in Example 8 (day 35) were inspected for tumours and micrometastases. The mean numbers of tumours on the lung surface of untreated mice fed the control diet, paclitaxel-treated mice fed the control diet, untreated mice fed milk fat, and paclitaxel-treated mice fed milk fat were 32, 18, 22, and 10, respectively (FIG. 6).

[6] = Body, tumour, organ and tissue weights (cachexia) in 4T1 tumour-bearing mice
Method: Tumours were established by s.c. injection of 2×10^5 EL-4 or 2×10^4 4T1 cells into the left flank of mice, and tumour growth determined by measuring two perpendicular diameters. […] All experiments included 5 or 6 mice per treatment group, unless otherwise indicated. Paclitaxel (30 mg dissolved in 5 ml of Cremophor® EL and dehydrated alcohol) was diluted in 0.9% NaCl and administered i.p. at 30 mg/Kg. In the case of the 4T1 metastatic model of breast cancer, after the mice were euthanased at the end of experiments, the organs including lung, liver and spleen were removed and weighed.
The mice were weighed at the start and end of the experiment. After the mice were euthanased, the tumours were excised and weighed. To determine the extent of adipose tissue and muscle wasting, epididymal adipose tissue and the left gastrocnemius muscle were dissected and weighed. The carcass weight was calculated as the difference in weight between the whole body and the tumour.

[7] = Blood cell counts in 4T1 tumour-bearing mice; type: in vivo, Balb/c mice
[8] = paclitaxel 30 mg/kg i.p.
Method: The jejuni from mice were fixed in 4% paraformaldehyde, embedded in paraffin, sectioned at 4 μm, and sections stained with hematoxylin-eosin. In each specimen, 20 well preserved villi were randomly selected and their lengths were measured by microscopy using an objective micrometer.
To determine whether milk fat protected the gut against paclitaxel-induced damage, groups of 6 Balb/c mice were fed the base AIN-93 diet, or the same diet substituted with 5% milk fat, representing ˜71% of the fat component of the diet. Two weeks later each mouse received an intraperitoneal injection of paclitaxel (30 mg/kg body weight). One week later they were killed and the jejunum was removed. Paraffin-embedded sections of the jejunum of mice treated with control diet, milk fat diet, control diet plus paclitaxel, and milk fat diet plus paclitaxel were stained with hematoxylin and eosin.

[9] = tested on: jejunal γ-glutamyl transpeptidase (γ-GGT); conditions: paclitaxel 30 mg/kg i.p.
Method: The activity of jejunal γ-glutamyl transpeptidase (γ-GGT) was recorded as a separate measure of gut damage, as described previously Ziotnik et al., 2005). A segment of the jejunum (approximately 5 cm) was excised and flushed with 10 ml of PBS, and cut into two 2 cm^2 segments which were placed into 1.0 ml of 1.0% Triton X-100, 0.15 M NaCl, 100 mM Tris, pH 8.0 (Tris buffer). Twenty microlitres of a solution containing 0.3 ml of 100 mM glycyl-glycine, pH 8.0, 0.08 ml Tris buffer, 0.5 ml of 5 mM γ-glutamyl-p-nitroanilide was added to final volume of 0.9 ml. The gut slices were incubated for 10 min in a shaking water bath at 37° C., and γ-GGT activity read at 405 nm. Results were expressed as units of γ-GGT activity per cm of jejunum, where one unit is defined as the γ-GGT activity that releases 1.0 mol of p-nitroaniline in 1 h.
To determine whether milk fat protected the gut against paclitaxel-induced damage, groups of 6 Balb/c mice were fed the base AIN-93 diet, or the same diet substituted with 5% milk fat, representing ˜71% of the fat component of the diet. Two weeks later each mouse received an intraperitoneal injection of paclitaxel (30 mg/kg body weight). One week later they were killed and the jejunum was removed.

[10] = tested on: 4T1 primary tumours; experiment: 4T1 tumour angiogenesis (anti-CD31 staining); type: in vivo, Balb/c mice; conditions: day 35
Method: To determine tumour vascularity, 10-μm frozen tumour sections were fixed with acetone, rinsed with PBS, blocked with 2% BSA for 2 hr, and incubated overnight with the anti-CD31 antibody MEC13.3, or an anti-CD105 mAb. They were subsequently incubated for 30 min with secondary antibodies using the VECTASTAIN Universal Quick kit (Vector Laboratories, Burlingame, Calif., USA); and developed with Sigma FAST DAB (3,3′-diaminobenzidine tetrahydrochloride) and CoCl2 enhancer tablets (Sigma), and counterstained with hematoxylin. Stained blood vessels were counted in five or six blindly chosen random fields (0.155 mm^2) at ×40 magnification, and the mean of the highest three counts was calculated. […]
The above 4T1 primary tumours (Example 8; day 35) of untreated mice fed the control diet, paclitaxel-treated mice fed the control diet, untreated mice fed milk fat, and paclitaxel-treated mice fed milk fat were excised, sectioned, and stained with an anti-CD31 antibody to identify vascular endothelial cells so as to measure tumour angiogenesis. Blood vessels stained with the anti-CD31 mAb were counted in blindly chosen random fields to record mean vessel density (8A), or the median distance to the nearest CD31 mAb-labeled blood vessel from an array point (8B).

[11] = Paclitaxel-induced apoptosis in jejunal crypts (TUNEL); type: in vivo, Balb/c mice; conditions: paclitaxel 30 mg/kg i.p.
Method: Tumours were excised and immediately frozen in dry ice, and stored at −70° C. for later in situ detection of apoptotic cells in tumours. Frozen serial sections of 6-μm thickness were fixed with paraformaldehyde solution (4% in PBS, pH 7.4), and permeabilized with a solution containing 0.1% Triton X-100 and 0.1% sodium citrate. They were incubated with 20 μl TUNEL reagent (In Situ apoptosis detection kit from Boehringer Mannheim, Germany) for 60 min at 37° C., and examined by fluorescence microscopy. Adjacent sections were counter-stained with haematoxylin to count the total number of cells, or the number of apoptotic cells in ten randomly selected fields (magnification of ×40). The apototic index (AI) was calculated as the number of apoptotic cells×100/total number of nucleated cells. For detection of apoptotic cells in vitro, the numbers of apoptotic and necrotic tumour cells were measured by staining with annexin-V-fluos, TUNEL, and trypan blue. For measurement of gut apoptosis, jejunal sections were stained by the TUNEL method using a DeadEnd™ Fluorometric TUNEL System (Promega, Madison, Wis., USA). Apoptotic cells in 10 randomly selected cypts were counted, and the data expressed as apoptotic bodies per crypt.

[12] = tested on: EL-4 tumour cells; experiment: EL-4 lymphoma tumour growth in mice fed experimental diets; type: in vivo, C57BL/6 mice
From the text: Mice were challenged subcutaneously with 2×10^5 EL-4 tumour cells two weeks after being placed on the diets. Tumour size as measured by two perpendicular diameters (in centimetres) was monitored until day 91, or until tumours reached 1 cm in diameter. Each point represents the mean tumour size with 95% confidence intervals for either 6 mice, or the number of mice indicated.
Groups of six mice were fed a control AIN-93G diet, diets containing either 28 g Lf+ or 120 g of milk fat (AMF) per 2.4 Kg of diet, or a diet containing a combination of both Lf and milk fat. Day 0 refers to the day the mice were placed on their diets. After 2 weeks on the diets, 2×10^5 EL-4 cells were injected into the flanks of mice. Tumour size as measured by two perpendicular diameters (in centimetres) was monitored until day 56. Each point represents the mean tumour size with 95% confidence intervals for either 6 mice, or the number of mice indicated.
Mice were challenged subcutaneously with EL-4 tumour cells two weeks after being placed on the diets. Tumour size was again measured by two perpendicular diameters (in centimetres).

[13] = paclitaxel chemotherapy, control diet
[14] = tumour-bearing mice, mean ± SEM, n = 6

With CCCCCC/C=C/C=C\CCCCCCCC(=O)O (single isomer, unassigned) [c-9, t-11 CLA isomer] the “synergy with Lf+” value ([1]; 5 g per 2.4 Kg of diet) was “no synergy” and the “effect on growth of 4T1 tumours” value ([1]; 5 g per 2.4 Kg of diet, 3% of the fat component) was “only wealdy inhibited”.
With O=P1(N(CCCl)CCCl)NCCCO1 (centres unmarked) [cyclophosphamide] the “reduction of peripheral WBC count” value [2] was “more than 90%” and the “reduction in average length of the villi compared with healthy control mice” value [3] was 65%.
For CC(=O)O[C@H]1C(=O)[C@@]2(C)[C@H]([C@H](OC(=O)c3ccccc3)[C@]3(O)C[C@H](OC(=O)[C@H](O)[C@@H](NC(=O)c4ccccc4)c4ccccc4)C(C)=C1C3(C)C)[C@]1(OC(C)=O)CO[C@@H]1C[C@@H]2O [paclitaxel], the “mean number of liver metastases” value [4] was 59, the “reduction in numbers of tumours in the liver compared with untreated mice fed the control diet” value [4] was 45% and the “mean number of tumours on the lung surface” value [5] was 18. The “reduction in numbers of tumours on the lung surface compared with untreated mice fed the control diet” value [5] was 44%, the “reduction in lung weight compared to untreated mice fed the control diet” value ([6]; day 35, tumour-bearing mice) was 30% and the “reduction in spleen weights compared to tumour-bearing mice fed the control diet” value [6, 13] was 8.5%. The Body weight [6, 14] was 17.7 ± 1.5 g, the Carcass body weight [6, 14] was 17.6 ± 1.4 g and the Epididymal adipose tissue [6, 14] was 24.3 ± 6.7 mg. The Gastrocnemius muscle [6, 14] was 101.2 ± 9.3 mg, the Liver [6, 14] was 1210.1 ± 72.4 mg and the Lung [6, 14] was 274.5 ± 30.6^3 mg. The Spleen [6, 14] was 72.35 ± 8.2^3 mg, the Tumor [6, 14] was 103.4 ± 24.1^3 mg and the “reduction in RBC count compared to tumour-bearing mice fed the control diet” value [7, 13] was 49%. The “reduction in WBC count compared to tumour-bearing mice fed the control diet” value [7, 13] was 44%, the RBC [7, 14] was 3.21 ± 0.74^3 ×10^6/μl and the WBC [7, 14] was 2.37 ± 0.39^3 ×10^3/μl. For the same compound, the “appearance of jejunal villi in sections” value ([8]; hematoxylin and eosin) was “broken and flattened villi”, the “reduction in average length of the villi compared with control mice” value ([8]; jejunum one week later) was 61% and the “reduction in jejunal γ-GGT activity compared to untreated control mice” value [9] was 56%. For the same compound, the “increase in median distance to the nearest CD31+ vessels compared with untreated mice fed the control diet” value [10] was 71%, the “reduction in microvessel density (CD31+ vessels) compared with untreated mice fed the control diet” value [10] was 37% and the “increase in apoptotic body count per crypt compared with untreated mice” value [11] was 6 fold. The “reduction in tumour size compared with untreated mice fed the control diet” value ([1]; day 35, 5% milk fat diet, paclitaxel 30 mg/kg i.p. at ~0.5 cm) was 31%.
In the case of sphingomyelin, the “delay of tumour growth in two mice” value ([12]; 1.2 g per 2.4 Kg of diet) is reported as about 1 week, the “delay of tumour growth in two other mice” value ([12]; 1.2 g per 2.4 Kg of diet) is reported as about 2 weeks and the “effect on tumour growth / tumorigenesis in individual mice” value ([12]; groups of five mice, per 2.4 Kg of diet: 28 g Lf+, 120 g Phospholac 600, 1.2 g sphingomyelin) is reported as “no appreciable affect on tumour growth of the remaining mouse”.
